From patent US10407445B2, “Hepatitis C virus inhibitors” (ENANTA PHARMACEUTICALS, INC., priority 2013, dated 2019)
Read-outs that look alike come from different tables or passages of the source.

What was measured:
Type in all cases: cell-based
[1] = tested on: HCV GT 1a replicon; test: HCV replicon assay, stable GT 1a replicon (Renilla luciferase); conditions: Hepatitis C virus, GT1A
Procedure: (§1) The activity of compounds was determined against HCV replicons representing genotypes (GT) 1a, 1b, 2a, and 3a. To generate stable Huh-7.5-based cell lines, HCV replicons were engineered to express the Renilla luciferase reporter (hRluc) fused to the neomycin phosphotransferase (Neo) gene. GT2a and GT3a HCV replicons were based on the JFH-1 subgenomic replicon (Kato et al. 2003 Gastroenterology, 125:1808-1817), in which the NS5A gene was replaced with that of strains J6 and S52 (GT2a and G3a, respectively). The activity of compounds against GT1a replicons encoding NS5A mutations (M28T, Q30R, L31M, Y93C, and Y93H) was also determined in a transient replication assay. The parental GT1a and GT2a replicons (pH/SG-Neo(L+I) and pSG-Neo-JFH1, respectively) were licensed from Apath LLC (Saint Louis, Mo.). The parental GT 1b replicon (pFKi389lucubineo_3_3′_ET) was licensed from ReBLikon GmbH (Germany). HCV replicons were constructed by standard molecular biology techniques described below. All replicon constructs were verified by restriction enzyme digestion and DNA sequencing.
pH/SG-Neo(L+I) was modified to add the firefly luciferase reporter gene and additional adaptive mutations by replacing the pH/SG-Neo(L+I) NS3-NS5A coding region with the corresponding sequence of pH77-S, creating pH/SG-lucubineo-H77S as described (Borawski J et al. 2009, J Virol 83: 10058-10074). Subsequently, the firefly luciferase-Neo cassette was replaced with the hRluc-Neo cassette. To create a unique cloning site, the NotI restriction site in NS5B was removed using QuickChange II XL Site-Directed Mutagenesis Kit (Agilent) and the following primers: NotI KO Fwd 5′-CTCAAACTCACTCCAATAGCTGCCGCTGGCCGGCTGGAC-3′(G→T mutation removing NotI site underlined) (SEQ. ID No. 1) and NotI KO Rev 5′-GTCCAGCGGGCCAGCGGCAGCTATTGGAGTGAGTTTGAG-3′(C→A mutation removing NotI site underlined) (SEQ. ID No. 2). The resulting vector, pH/SG-lucubineo-H775-NotIKO, was sequenced to confirm the NS5B gene. The hRluc-Neo cassette was PCR amplified from pF9 cytomegalovirus (CMV) hRluc-Neo Flexi(R) (Promega) using Accuprime Super Mix II (Invitrogen) and the following primers, which introduce restriction sites: […]
The amplification product was subcloned into pCR2.1-TOPO (Invitrogen). The resulting plasmid was digested with AscI and NotI, and the excised hRluc-Neo fragment was ligated using the Promega Rapid Ligation Kit (Promega) into pH/SG-lucubineo-H775-NotIKO digested with the same enzymes.
Stable HCV replicon cell lines were grown in complete media (Dulbecco's modified Eagle medium [DMEM], 2 mM L-glutamine, 0.1 mM essential amino acids, 1 mM sodium pyruvate, 10% heat inactivated fetal bovine serum) with the addition 500 μg/ml […] (G418). Huh7-lunet cells were maintained in the same medium without the addition of G418. Cells were routinely passaged at a dilution of 1:4 two times a week. The assay medium for both luciferase reporter HCV replicon and cytotoxicity assays used phenol red-free DMEM and lacked G418. For each stable replicon assay, a sixteen point half-log dilution series of compound was stamped (0.5 ul compound per well) into three replica 384-well plates, to which cells were added directly (4000 cells/well). For the transient replication assay, Huh7-lunet cells in ice-cold phosphate buffered saline (PBS) were electroporated (BioRad electroporator; 950 uF, 270V) with 10 ug purified in vitro transcribed HCV replicon RNA, followed by resuspension in complete media and plating (8000 cells/well) into compound stamped 384-well plates. Luciferase activity of compound-treated cells was measured relative to DMSO-treated cells after 72 h incubation using RENILLA-GLO™ Luciferase Assay (Promega). Cytotoxicity (CC50) in the GT1b replicon cell line was analyzed using CELL TITER-GLO™ (Promega). […]

[2] = tested on: HCV GT 2a-J6 replicon; test: HCV replicon assay, GT2a chimeric replicon expressing NS5A from GT2a strain J6; conditions: Hepatitis C virus, read-out: EC50 (nM) 2a-J6
Procedure: as §1
(§2) The plasmid pSG-hRlucNeo-JFH1 was generated from pSG-Neo-JFH1 (Kato et al. 2003, Gastroentrology 125:1808-1817). A fragment containing the JFH-1 5′ NTR—hRluc-Neo gene and two unique restriction sites (AgeI and PmeI) was synthesized (Integrated DNA Technologies, Coralville, Iowa). The resulting synthetic plasmid was digested with AgeI and PmeI and the excised fragment (5′NTR-hRluc-Neo) was ligated into pSG-Neo-JFH1 digested with the same enzymes to generate pSG-hRlucNeo-JFH1. To allow expression of heterologous NS5A sequences, an NS5A shuttle vector was generated from pSG-Neo-JFH1, in which the entire coding sequence of NS5A plus the first eight codons of NS5B were replaced with an AfeI restriction site. This was done by Infusion cloning (Clontech, Mountain View, Calif.) from two PCR products that were generated using pSG-Neo-JFH1 as a template and the following primer pairs:
(§3) Underlined sequences denote regions of overlap necessary for Infusion cloning. Purified PCR products were cloned directly into an NsiI/SnaBI digested pSG-Neo-JFH1 following the manufacturer's instructions to generate pSG-Neo-JFH1-5Ashuttle. The 2023 base pair AgeI/PmeI fragment from pSG-hRlucNeo-JFH1 was then ligated into pSG-Neo-JFH1-5Ashuttle to generate pSG-hRlucNeo-JFH1-5Ashuttle. To generate the 2a-2a-(J6) and 2a-3a-(S52) NS5A chimeric replicons, the full length NS5A sequences from GT2a strain J6 (accession AF177036) and GT3a strain S52 (accession GU814263), with the addition of the first eight codons of JFH-1 NS5B (5′-TCCATGTCATACTCCTGGACCGGG-3′), were synthesized by GeneArt (Life Technologies, Carlsbad Calif.). J6 and S52 NS5A sequences were then PCR amplified from the synthetic clones using the appropriate forward primer:
(§4) Underlined sequences denote regions of overlap with pSG-hRlucNeo-JFH1-5Ashuttle necessary for Infusion cloning. Purified PCR products were directly cloned into AfeI-digested shuttle vector by Infusion cloning following the manufacturer's instructions.
(§5) Stable HCV replicon cell lines were grown in complete media (Dulbecco's modified Eagle medium [DMEM], 2 mM L-glutamine, 0.1 mM essential amino acids, 1 mM sodium pyruvate, 10% heat inactivated fetal bovine serum) with the addition 500 μg/ml […] (G418). Huh7-lunet cells were maintained in the same medium without the addition of G418. Cells were routinely passaged at a dilution of 1:4 two times a week. The assay medium for both luciferase reporter HCV replicon and cytotoxicity assays used phenol red-free DMEM and lacked G418. For each stable replicon assay, a sixteen point half-log dilution series of compound was stamped (0.5 ul compound per well) into three replica 384-well plates, to which cells were added directly (4000 cells/well). […]

[3] = tested on: HCV GT 3a replicon; test: HCV replicon assay, GT2a chimeric replicon expressing NS5A from GT3a strain S52; conditions: Hepatitis C virus, read-out: EC50 (nM) 3a
Procedure: as §1, §2, §3, §4, §5

[4] = tested on: GT1a replicon encoding NS5A mutation M28T; test: Transient replication assay, GT1a replicon with NS5A mutation M28T; conditions: Hepatitis C virus
[5] = tested on: GT1a replicon encoding NS5A mutation Q30R; test: Transient replication assay, GT1a replicon with NS5A mutation Q30R; conditions: Hepatitis C virus
[6] = tested on: GT1a replicon encoding NS5A mutation L31V; test: Transient replication assay, GT1a replicon with NS5A mutation L31V; conditions: Hepatitis C virus
[7] = tested on: GT1a replicon encoding NS5A mutation Y93C; test: Transient replication assay, GT1a replicon with NS5A mutation Y93C; conditions: Hepatitis C virus
[8] = tested on: GT1a replicon encoding NS5A mutation Y93H; test: Transient replication assay, GT1a replicon with NS5A mutation Y93H; conditions: Hepatitis C virus
[9] = comparative table, GT 1a, read-out: EC50 (nM) 1a
[10] = read-out: 1a EC50 (nM) 1a (H77S)

Compound | EC50 [1, 9] [nM] | EC50 [2] [nM] | EC50 [3] [nM] | EC50 ([4]; read-out: EC50 (nM) 1a M28T) [nM] | EC50 ([5]; read-out: EC50 (nM) 1a Q30R) [nM] | EC50 ([6]; read-out: EC50 (nM) 1a L31V) [nM] | EC50 ([7]; read-out: EC50 (nM) 1a Y93C) [nM] | EC50 ([8]; read-out: EC50 (nM) 1a Y93H) [nM] | EC50 [1, 10] [nM] | EC50 ([4]; read-out: 1a EC50 (nM) M28T) [nM] | EC50 ([5]; read-out: 1a EC50 (nM) Q30R) [nM] | EC50 ([6]; read-out: 1a EC50 (nM) L31V) [nM] | EC50 ([7]; read-out: 1a EC50 (nM) Y93C) [nM] | EC50 ([8]; read-out: 1a EC50 (nM) Y93H) [nM]
COC(=O)N[C@H](C(=O)N1C[C@@]2(CCCOC2)C[C@H]1c1ncc(-c2ccc(-c3ccc4c(ccc5nc([C@@H]6CCCN6C(=O)[C@@H](NC(=O)OC)C(C)C)[nH]c54)c3)cc2)[nH]1)C(C)C [drawing 235] | 0.01 | 50 | 297 | 0.03 | 0.06 | 0.1 | 0.02 | 1 |  |  |  |  |  | 
COC(=O)N[C@H](C(=O)N1C[C@@]2(CCCO2)C[C@H]1c1ncc(-c2ccc(-c3ccc4c(ccc5nc([C@@H]6CCCN6C(=O)[C@@H](NC(=O)OC)C(C)C)[nH]c54)c3)cc2)[nH]1)C(C)C [drawing 231] |  |  |  |  |  |  |  |  | 0.06 | 14 | 3 | 46 | 0.2 | 5
COC(=O)N[C@H](C(=O)N1C[C@@]2(CCCCO2)C[C@H]1c1ncc(-c2ccc(-c3ccc4c(ccc5nc([C@@H]6CCCN6C(=O)[C@@H](NC(=O)OC)C(C)C)[nH]c54)c3)cc2)[nH]1)C(C)C | 0.15 | 267 | 156 | 6 | 5 | 44 | 0.7 | 6 |  |  |  |  |  | 
COC(=O)N[C@H](C(=O)N1C[C@]2(CCCO2)C[C@H]1c1ncc(-c2ccc(-c3ccc4c(ccc5nc([C@@H]6CCCN6C(=O)[C@@H](NC(=O)OC)C(C)C)[nH]c54)c3)cc2)[nH]1)C(C)C [drawing 228] |  |  |  |  |  |  |  |  | 0.02 | 0.3 | 0.05 | 0.4 | 0.2 | 15
COC(=O)N[C@H](C(=O)N1C[C@]2(CCOC2)C[C@H]1c1ncc(-c2ccc(-c3ccc4c(ccc5nc([C@@H]6CCCN6C(=O)[C@@H](NC(=O)OC)C(C)C)[nH]c54)c3)cc2)[nH]1)C(C)C [drawing 229] |  |  |  |  |  |  |  |  | 0.02 | 3 | 0.8 | 11 | 0.8 | 42
COC(=O)N[C@H](C(=O)N1C[C@]2(CCCCO2)C[C@H]1c1ncc(-c2ccc(-c3ccc4c(ccc5nc([C@@H]6CCCN6C(=O)[C@@H](NC(=O)OC)C(C)C)[nH]c54)c3)cc2)[nH]1)C(C)C | 0.01 | 27 | 1 | 0.01 | 0.03 | 0.3 | 0.2 | 9 |  |  |  |  |  | 
COC(=O)N[C@H](C(=O)N1C[C@@]2(CCOC2)C[C@H]1c1ncc(-c2ccc(-c3ccc4c(ccc5nc([C@@H]6CCCN6C(=O)[C@@H](NC(=O)OC)C(C)C)[nH]c54)c3)cc2)[nH]1)C(C)C [drawing 230] |  |  |  |  |  |  |  |  | 0.01 | 0.5 | 0.4 | 1 | 0.4 | 7
COC(=O)N[C@H](C(=O)N1CC2(CCOCC2)C[C@H]1c1ncc(-c2ccc(-c3ccc4c(ccc5nc([C@@H]6CCCN6C(=O)[C@@H](NC(=O)OC)C(C)C)[nH]c54)c3)cc2)[nH]1)C(C)C [drawing 234] | 0.03 | 32 | 0.7 | 0.9 | 1 | 6 | 1 | 26 |  |  |  |  |  | 
